The values that follow come from ChEMBL document CHEMBL3627608, “Crystal structures of human RIP2 kinase catalytic domain complexed with ATP-competitive inhibitors: Foundations for understanding inhibitor selectivity” (Bioorg Med Chem, 2015).

The target of assay [1] is T1, Phosphorylase b kinase gamma catalytic chain, liver/testis isoform (Homo sapiens) (UniProt P15735).
T1 sequence (whole entry): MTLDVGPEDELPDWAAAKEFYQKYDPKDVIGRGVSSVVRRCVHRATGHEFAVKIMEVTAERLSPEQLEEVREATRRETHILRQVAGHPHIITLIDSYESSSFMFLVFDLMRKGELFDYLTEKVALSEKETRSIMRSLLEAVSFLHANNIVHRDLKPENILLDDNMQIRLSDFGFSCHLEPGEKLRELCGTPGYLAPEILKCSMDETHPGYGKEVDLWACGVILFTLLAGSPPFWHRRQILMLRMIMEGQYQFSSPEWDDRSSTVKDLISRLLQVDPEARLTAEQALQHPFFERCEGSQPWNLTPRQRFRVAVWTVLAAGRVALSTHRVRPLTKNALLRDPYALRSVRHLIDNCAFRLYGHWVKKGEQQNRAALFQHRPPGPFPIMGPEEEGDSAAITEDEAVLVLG
The assay can be described thus: Inhibition of PHKg2 (unknown origin) at 10 uM after 120 mins P33 radiolabeled kinase activity assay.

Assay [2] addresses CDK3/Cyclin E (Homo sapiens) (UniProt P24864+Q00526). The assay can be described thus: Inhibition of CDK3/cyclin E (unknown origin) at 10 uM after 120 mins P33 radiolabeled kinase activity assay. The format is protein-complex assay.
Assay [3] addresses T2, Protein kinase C zeta type (Homo sapiens) (UniProt Q05513).
T2 sequence (whole entry): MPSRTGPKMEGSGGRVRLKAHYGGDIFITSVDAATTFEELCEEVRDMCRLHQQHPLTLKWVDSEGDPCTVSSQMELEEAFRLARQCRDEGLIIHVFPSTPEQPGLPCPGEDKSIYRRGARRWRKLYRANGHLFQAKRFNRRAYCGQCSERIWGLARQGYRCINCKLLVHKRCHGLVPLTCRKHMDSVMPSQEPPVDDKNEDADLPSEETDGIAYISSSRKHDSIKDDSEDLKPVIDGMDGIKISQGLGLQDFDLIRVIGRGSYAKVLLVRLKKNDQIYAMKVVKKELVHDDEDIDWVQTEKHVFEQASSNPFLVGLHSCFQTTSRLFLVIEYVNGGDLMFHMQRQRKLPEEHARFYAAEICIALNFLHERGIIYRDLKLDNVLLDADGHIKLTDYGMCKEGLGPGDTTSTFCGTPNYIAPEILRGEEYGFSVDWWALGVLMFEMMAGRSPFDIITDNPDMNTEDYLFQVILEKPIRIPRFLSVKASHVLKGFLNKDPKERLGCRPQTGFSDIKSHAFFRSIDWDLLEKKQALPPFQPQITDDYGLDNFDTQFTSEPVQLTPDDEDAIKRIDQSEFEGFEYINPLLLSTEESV
The assay can be described thus: Inhibition of PKCzeta (unknown origin) at 10 uM after 120 mins P33 radiolabeled kinase activity assay.

The target of assay [4] is G protein-coupled receptor kinase 5 (Homo sapiens) (UniProt P34947). The assay can be described thus: Inhibition of GRK5 (unknown origin) at 10 uM after 120 mins P33 radiolabeled kinase activity assay.
Assay [5] deals with Casein kinase I isoform gamma-2 (Homo sapiens) (UniProt P78368). The assay can be described thus: Inhibition of CK1gamma2 (unknown origin) at 10 uM after 120 mins P33 radiolabeled kinase activity assay.
For assay [6], the target named is T3, Serine/threonine-protein kinase Nek9 (Homo sapiens) (UniProt Q8TD19).
T3 sequence (whole entry): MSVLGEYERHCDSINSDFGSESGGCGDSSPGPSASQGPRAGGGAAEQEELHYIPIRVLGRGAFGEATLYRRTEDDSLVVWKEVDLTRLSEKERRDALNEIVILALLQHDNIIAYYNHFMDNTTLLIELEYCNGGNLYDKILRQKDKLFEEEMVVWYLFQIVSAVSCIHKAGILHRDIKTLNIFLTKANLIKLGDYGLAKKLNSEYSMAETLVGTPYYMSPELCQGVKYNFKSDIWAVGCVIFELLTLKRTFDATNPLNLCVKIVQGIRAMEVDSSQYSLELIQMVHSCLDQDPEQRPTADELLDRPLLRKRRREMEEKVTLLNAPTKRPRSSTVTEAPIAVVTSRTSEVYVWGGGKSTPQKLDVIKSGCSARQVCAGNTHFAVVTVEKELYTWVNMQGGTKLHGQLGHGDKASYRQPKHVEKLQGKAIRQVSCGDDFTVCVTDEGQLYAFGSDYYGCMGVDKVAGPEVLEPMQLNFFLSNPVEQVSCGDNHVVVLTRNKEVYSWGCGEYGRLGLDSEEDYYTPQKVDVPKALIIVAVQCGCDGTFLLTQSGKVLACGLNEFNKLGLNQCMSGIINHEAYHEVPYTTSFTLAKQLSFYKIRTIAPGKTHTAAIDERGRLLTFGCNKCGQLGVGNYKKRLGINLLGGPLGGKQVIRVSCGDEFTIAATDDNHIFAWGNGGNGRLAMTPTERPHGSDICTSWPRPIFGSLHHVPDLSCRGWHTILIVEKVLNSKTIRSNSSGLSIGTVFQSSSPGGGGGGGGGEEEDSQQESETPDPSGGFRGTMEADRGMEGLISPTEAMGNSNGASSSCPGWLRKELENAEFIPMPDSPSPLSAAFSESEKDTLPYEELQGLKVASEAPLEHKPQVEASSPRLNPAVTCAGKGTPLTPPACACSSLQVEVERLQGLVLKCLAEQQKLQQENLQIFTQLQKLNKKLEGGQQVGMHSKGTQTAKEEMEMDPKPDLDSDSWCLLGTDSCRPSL
The assay can be described thus: Inhibition of NEK9 (unknown origin) at 10 uM after 120 mins P33 radiolabeled kinase activity assay.

Assay [7] addresses Cyclin-dependent kinase 18 (Homo sapiens) (UniProt Q07002). The assay can be described thus: Inhibition of PCTK3 (unknown origin) at 10 uM after 120 mins P33 radiolabeled kinase activity assay.
The target of assay [8] is T4, Serine/threonine-protein kinase NLK (Homo sapiens) (UniProt Q9UBE8).
T4 sequence (whole entry): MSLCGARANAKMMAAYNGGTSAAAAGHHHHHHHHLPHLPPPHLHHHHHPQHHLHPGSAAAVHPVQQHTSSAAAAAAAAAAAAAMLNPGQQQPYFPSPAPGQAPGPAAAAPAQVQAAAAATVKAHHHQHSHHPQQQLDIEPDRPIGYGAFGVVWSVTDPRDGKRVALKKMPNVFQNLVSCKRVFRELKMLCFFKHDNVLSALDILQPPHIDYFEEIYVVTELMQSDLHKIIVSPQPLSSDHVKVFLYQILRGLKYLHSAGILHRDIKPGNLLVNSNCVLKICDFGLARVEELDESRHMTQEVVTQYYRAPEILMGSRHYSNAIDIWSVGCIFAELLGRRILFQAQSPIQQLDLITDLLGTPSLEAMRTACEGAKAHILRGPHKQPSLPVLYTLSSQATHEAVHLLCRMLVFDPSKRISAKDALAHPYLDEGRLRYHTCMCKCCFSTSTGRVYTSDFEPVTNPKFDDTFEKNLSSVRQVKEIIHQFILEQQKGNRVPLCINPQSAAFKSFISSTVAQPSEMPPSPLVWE
The assay can be described thus: Inhibition of NLK (unknown origin) at 10 uM after 120 mins P33 radiolabeled kinase activity assay.

The target in assay [9] is Ribosomal protein S6 kinase alpha-1 (Homo sapiens) (UniProt Q15418). The assay can be described thus: Inhibition of RSK1 (unknown origin) at 10 uM after 120 mins P33 radiolabeled kinase activity assay.
Ribosomal protein S6 kinase alpha-1 (Homo sapiens), sequence (Q15418 whole entry): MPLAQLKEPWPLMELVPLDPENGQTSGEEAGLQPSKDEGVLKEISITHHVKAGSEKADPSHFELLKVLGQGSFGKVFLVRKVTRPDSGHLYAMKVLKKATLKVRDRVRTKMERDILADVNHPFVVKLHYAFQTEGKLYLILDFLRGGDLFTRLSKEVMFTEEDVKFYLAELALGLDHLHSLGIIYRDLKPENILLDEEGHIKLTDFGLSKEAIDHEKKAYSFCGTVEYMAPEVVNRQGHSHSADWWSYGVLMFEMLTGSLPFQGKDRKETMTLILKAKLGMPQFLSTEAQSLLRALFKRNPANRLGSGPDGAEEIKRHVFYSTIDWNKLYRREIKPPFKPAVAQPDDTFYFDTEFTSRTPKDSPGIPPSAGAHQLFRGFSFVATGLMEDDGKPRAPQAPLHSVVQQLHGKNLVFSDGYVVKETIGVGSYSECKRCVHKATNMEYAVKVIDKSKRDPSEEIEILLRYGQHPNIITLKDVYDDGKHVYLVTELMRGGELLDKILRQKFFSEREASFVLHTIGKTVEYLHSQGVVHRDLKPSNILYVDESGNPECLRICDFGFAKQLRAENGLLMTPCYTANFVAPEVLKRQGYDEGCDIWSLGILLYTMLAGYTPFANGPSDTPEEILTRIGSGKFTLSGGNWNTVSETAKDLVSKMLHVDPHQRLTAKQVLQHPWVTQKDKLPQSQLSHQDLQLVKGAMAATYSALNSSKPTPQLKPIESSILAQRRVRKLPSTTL

Cyclin-dependent kinase 18 (Homo sapiens), sequence (Q07002 whole entry): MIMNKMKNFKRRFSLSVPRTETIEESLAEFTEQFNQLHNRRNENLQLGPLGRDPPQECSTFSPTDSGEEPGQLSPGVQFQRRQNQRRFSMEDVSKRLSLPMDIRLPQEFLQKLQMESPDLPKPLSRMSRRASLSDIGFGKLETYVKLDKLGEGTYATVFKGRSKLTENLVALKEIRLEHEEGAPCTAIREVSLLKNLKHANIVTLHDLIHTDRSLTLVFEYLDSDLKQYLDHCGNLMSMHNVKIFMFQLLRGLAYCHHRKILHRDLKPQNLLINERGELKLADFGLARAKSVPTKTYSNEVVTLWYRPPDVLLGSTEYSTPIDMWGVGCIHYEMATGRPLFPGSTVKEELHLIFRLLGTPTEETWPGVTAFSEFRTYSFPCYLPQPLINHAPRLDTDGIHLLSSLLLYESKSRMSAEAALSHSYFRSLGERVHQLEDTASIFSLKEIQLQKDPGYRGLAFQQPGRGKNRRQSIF
Casein kinase I isoform gamma-2 (Homo sapiens), sequence (P78368 whole entry, looked up, canonical isoform): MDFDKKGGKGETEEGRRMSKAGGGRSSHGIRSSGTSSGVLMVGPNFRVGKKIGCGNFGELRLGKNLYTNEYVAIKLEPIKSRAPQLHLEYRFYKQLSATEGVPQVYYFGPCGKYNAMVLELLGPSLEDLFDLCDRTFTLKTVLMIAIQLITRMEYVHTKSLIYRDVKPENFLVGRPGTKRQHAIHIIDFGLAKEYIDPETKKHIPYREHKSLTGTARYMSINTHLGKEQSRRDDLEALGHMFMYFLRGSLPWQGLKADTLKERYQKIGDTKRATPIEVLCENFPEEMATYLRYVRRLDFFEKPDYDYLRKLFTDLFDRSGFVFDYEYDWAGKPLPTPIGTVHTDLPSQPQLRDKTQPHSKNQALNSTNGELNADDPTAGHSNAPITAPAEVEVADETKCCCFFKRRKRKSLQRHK
G protein-coupled receptor kinase 5 (Homo sapiens), sequence (P34947 whole entry, looked up, canonical isoform): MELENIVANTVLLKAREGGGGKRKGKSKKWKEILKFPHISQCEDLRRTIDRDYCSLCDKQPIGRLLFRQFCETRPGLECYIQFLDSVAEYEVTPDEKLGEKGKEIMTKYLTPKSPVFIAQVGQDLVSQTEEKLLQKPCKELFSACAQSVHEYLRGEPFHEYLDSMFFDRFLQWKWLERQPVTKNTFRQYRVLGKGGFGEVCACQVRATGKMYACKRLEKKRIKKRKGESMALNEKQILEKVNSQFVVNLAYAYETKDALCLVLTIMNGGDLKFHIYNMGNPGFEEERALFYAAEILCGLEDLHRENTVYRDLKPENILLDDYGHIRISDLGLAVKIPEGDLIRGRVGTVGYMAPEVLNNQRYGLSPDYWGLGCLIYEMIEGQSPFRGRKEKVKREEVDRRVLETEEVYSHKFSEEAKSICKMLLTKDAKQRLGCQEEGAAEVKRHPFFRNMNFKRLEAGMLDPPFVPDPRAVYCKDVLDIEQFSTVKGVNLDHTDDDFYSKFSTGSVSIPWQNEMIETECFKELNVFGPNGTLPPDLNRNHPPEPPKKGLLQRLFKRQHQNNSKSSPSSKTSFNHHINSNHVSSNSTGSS
CDK3/Cyclin E (Homo sapiens), sequence (P24864 whole entry, looked up): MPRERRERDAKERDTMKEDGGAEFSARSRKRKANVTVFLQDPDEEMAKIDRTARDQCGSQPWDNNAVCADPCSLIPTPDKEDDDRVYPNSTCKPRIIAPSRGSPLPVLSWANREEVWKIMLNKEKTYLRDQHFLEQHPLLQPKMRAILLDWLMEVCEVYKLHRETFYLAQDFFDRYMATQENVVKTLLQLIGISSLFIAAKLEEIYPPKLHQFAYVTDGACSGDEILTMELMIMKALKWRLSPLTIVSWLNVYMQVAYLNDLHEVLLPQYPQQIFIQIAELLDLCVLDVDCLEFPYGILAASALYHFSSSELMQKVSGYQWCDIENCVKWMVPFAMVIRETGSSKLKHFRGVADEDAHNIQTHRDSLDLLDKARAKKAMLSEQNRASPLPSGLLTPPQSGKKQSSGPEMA
CDK3/Cyclin E (Homo sapiens), sequence (Q00526 whole entry, looked up): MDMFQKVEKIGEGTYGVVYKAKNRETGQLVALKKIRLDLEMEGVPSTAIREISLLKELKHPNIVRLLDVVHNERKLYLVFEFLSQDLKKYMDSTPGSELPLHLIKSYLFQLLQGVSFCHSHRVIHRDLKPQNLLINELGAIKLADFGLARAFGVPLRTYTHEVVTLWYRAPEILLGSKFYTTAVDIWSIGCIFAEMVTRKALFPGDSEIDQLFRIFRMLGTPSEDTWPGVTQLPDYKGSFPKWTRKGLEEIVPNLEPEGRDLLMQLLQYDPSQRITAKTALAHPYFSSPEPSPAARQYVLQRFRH

Turning to `CS(=O)(=O)c1cccc(Nc2nccc(-c3sc(N4CCOCC4)nc3-c3cccc(NS(=O)(=O)c4c(F)cccc4F)c3)n2)c1`, the inhibition is 5.98% in [1]; 60% in assay [2]; 7.55% in assay [3]; -3.67% in assay [4]; 34.5% in assay [5]; 100% in [6]. For the same molecule, the inhibition was determined as 27.3% in [7], 88.6% in [8] and 73% in assay [9].

As for `CC(C)(C)c1cc(NC(=O)Nc2ccc(Oc3ccncc3)cc2)no1`, the inhibition in assay [1] is -3.81%; in assay [2], 49.5%; in assay [3] it was 5.44%; in assay [4], -7.31%; in assay [5], 20.1%; in assay [6], 20.9%. For the same molecule, the inhibition in assay [7] turned out to be 92.2%; in [8] it was 51.5%; in [9], 52%.

In the case of `COCCNC(=O)c1ccc2c(c1)nc(-c1cnc(-c3ccc(Cl)cc3)[nH]1)n2CCOC`, the inhibition in [1] is 3.38%; in [2] it was 0.29%; in [3], 3.68%; in [4], -6.1%; in [5], 11.4%; in [6], -6.23%. Further, the inhibition in assay [7] was -6.38%; in assay [8], 55.2%; in [9], 11.6%.
